Biological target: bovine cardiac myosin (Bos taurus, UniProt Q9BE39)
Assay: Myosin activation assay (PK/LDH-coupled ATPase, bovine cardiac myofibrils)
Format: biochemical
Settings: AC20 = concentration at which total response is increased by twenty percent
Method in brief: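 Skinned bovine cardiac myofibrils (1 mg/mL) in PIPES/MgCl2 buffer pH 6.8 at free Ca2+ giving ~50% (pCa ~6) or <5% (pCa 10) activation, with 50 μM ATP and 3.3% DMSO. ATPase rate from NADH absorbance at 340 nm (PK/LDH coupling) over 15 min at ambient temperature. AC20/AC50 from a four-parameter fit of DMSO-normalised rates.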

bovine cardiac myosin, sequence (Q9BE39 whole entry): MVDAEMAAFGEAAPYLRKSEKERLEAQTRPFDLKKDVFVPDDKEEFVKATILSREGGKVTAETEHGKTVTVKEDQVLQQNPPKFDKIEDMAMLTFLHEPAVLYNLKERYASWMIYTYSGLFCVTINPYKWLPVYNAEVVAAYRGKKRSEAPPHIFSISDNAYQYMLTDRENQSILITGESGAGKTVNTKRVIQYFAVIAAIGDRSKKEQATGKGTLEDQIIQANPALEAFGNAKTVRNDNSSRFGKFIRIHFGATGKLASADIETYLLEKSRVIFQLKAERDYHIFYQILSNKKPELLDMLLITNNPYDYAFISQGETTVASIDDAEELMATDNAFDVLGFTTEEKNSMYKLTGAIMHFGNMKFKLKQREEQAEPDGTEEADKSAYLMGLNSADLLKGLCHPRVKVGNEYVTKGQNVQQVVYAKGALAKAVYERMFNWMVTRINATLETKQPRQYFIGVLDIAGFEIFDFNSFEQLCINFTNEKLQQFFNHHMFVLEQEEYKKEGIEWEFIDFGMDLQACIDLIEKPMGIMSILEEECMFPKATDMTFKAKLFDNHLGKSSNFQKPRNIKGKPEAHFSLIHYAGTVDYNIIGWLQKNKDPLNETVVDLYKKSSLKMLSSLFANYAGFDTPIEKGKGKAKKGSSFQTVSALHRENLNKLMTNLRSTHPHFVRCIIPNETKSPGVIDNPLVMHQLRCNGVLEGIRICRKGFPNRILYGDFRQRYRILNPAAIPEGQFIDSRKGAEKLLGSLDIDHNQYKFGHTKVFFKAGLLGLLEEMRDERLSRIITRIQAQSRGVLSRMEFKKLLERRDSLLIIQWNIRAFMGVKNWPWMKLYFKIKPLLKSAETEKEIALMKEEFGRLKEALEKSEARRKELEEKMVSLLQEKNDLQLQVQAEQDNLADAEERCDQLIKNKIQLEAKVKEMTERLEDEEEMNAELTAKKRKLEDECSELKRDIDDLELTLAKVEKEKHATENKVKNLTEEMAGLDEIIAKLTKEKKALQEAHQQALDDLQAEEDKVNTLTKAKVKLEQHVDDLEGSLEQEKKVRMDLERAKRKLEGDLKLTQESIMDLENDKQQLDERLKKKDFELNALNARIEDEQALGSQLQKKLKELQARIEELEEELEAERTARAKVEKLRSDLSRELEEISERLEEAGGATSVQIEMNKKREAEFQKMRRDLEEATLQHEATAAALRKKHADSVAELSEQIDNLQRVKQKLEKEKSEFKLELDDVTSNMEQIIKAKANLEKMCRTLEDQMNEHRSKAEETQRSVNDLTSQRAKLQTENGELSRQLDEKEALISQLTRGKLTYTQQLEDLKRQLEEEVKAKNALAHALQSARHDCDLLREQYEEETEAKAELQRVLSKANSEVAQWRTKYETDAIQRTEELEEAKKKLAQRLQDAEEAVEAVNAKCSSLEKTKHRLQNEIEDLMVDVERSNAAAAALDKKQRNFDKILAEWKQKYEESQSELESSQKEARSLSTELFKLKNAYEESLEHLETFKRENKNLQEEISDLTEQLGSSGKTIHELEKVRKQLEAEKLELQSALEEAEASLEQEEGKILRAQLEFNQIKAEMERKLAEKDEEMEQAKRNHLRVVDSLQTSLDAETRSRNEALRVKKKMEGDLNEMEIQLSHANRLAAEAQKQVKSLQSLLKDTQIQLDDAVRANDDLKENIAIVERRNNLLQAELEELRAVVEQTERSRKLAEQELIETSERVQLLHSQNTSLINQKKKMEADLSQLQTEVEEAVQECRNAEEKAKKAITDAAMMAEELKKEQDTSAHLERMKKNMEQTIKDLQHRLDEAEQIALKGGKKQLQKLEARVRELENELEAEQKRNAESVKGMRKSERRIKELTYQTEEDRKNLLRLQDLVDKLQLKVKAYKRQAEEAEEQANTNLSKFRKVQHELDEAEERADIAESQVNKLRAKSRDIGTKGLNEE
bovine cardiac myosin, sequence (P85100 whole entry partner): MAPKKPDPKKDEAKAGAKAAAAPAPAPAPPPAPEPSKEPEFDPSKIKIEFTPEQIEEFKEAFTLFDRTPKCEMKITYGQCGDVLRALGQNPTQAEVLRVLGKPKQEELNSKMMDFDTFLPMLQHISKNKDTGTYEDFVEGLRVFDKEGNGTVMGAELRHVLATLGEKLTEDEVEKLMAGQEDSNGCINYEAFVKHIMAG
bovine cardiac myosin, sequence (Q3SZE5 whole entry partner): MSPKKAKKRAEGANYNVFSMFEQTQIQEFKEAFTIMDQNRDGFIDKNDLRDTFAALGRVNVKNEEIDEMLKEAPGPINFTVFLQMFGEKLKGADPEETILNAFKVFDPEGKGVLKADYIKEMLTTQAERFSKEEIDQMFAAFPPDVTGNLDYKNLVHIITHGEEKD

| Structure (SMILES) | Myosin Activation (AC20) |
| --- | --- |
| Cn1cc(S(=O)(=O)C(C)(C)C2CCN(C(=O)Nc3nnco3)CC2)c(C(F)F)n1 [Compound 145, 4-(2-((3-(difluoromethyl)-1-methyl-1H-pyrazol-4-yl)sulfonyl)propan-2-yl)-N-(1,3,4-oxadiazol-2-yl)piperidine-1-carboxamide] | + (+ represents myosin activation value AC20 > 5 μM) |
| CC(F)(C1CCN(C(=O)Nc2cnoc2)CC1)S(=O)(=O)c1cccc(F)c1 (stereo not shown) [Compound 235, 4-(1-fluoro-1-((3-fluorophenyl)sulfonyl)ethyl)-N-(isoxazol-4-yl)piperidine-1-carboxamide] | +++ (+++ represents myosin activation value AC20 < 2 μM) |
| Cn1nc(C(F)(F)F)cc1S(=O)(=O)C(C)(C)C1CCN(C(=O)Nc2ccnnc2)CC1 [Compound 137, 4-(2-((1-methyl-3-(trifluoromethyl)-1H-pyrazol-5-yl)sulfonyl)propan-2-yl)-N-(pyridazin-4-yl)piperidine-1-carboxamide] | +++ (+++ represents myosin activation value AC20 < 2 μM) |
| O=C(Nc1ccnnc1)N1CCC(C(F)(F)S(=O)(=O)c2ccccc2C(F)F)CC1 [Compound 4, 4-(((2-(Difluoromethyl)phenyl)sulfonyl)difluoromethyl)-N-(pyridazin-4-yl)piperidine-1-carboxamide] | ++ (++ represents myosin activation value AC20 from 2 μM-5 μM) |
| Cn1nc(C(F)(F)F)cc1S(=O)(=O)C(C)(F)C1CCN(C(=O)Nc2ccnc(F)c2)CC1 (stereo not shown) [Compound 251, 4-(1-fluoro-1-((1-methyl-3-(trifluoromethyl)-1H-pyrazol-5-yl)sulfonyl)ethyl)-N-(2-fluoropyridin-4-yl)piperidine-1-carboxamide] | ++ (++ represents myosin activation value AC20 from 2 μM-5 μM) |
| [2H]C([2H])([2H])n1cc(S(=O)(=O)[C@@](F)(C2CCN(C(=O)Nc3ccon3)CC2)C([2H])([2H])[2H])c(C(F)F)n1 [Compound 306, (R)-4-(1-((3-(difluoromethyl)-1-(methyl-d3)-1H-pyrazol-4-yl)sulfonyl)-1-fluoroethyl-2,2,2-d3)-N-(isoxazol-3-yl)piperidine-1-carboxamide] | +++ (+++ represents myosin activation value AC20 < 2 μM) |
| Cc1ccc(NC(=O)N2CCC(C(F)(F)S(=O)(=O)c3cn(C)nc3C(F)F)CC2)cn1 [Compound 80, 4-(((3-(difluoromethyl)-1-methyl-1H-pyrazol-4-yl)sulfonyl)difluoromethyl)-N-(6-methylpyridin-3-yl)piperidine-1-carboxamide] | + (+ represents myosin activation value AC20 > 5 μM) |
| CC(C)(C1CCN(C(=O)Nc2cn[nH]c2)CC1)S(=O)(=O)c1cccc(F)c1 [Compound 146, 4-(2-((3-fluorophenyl)sulfonyl)propan-2-yl)-N-(1H-pyrazol-4-yl)piperidine-1-carboxamide] | ++ (++ represents myosin activation value AC20 from 2 μM-5 μM) |
| CC(C)(C1CCN(C(=O)Nc2cnccn2)CC1)S(=O)(=O)c1cccc(F)c1 [Compound 131, 4-(2-((3-fluorophenyl)sulfonyl)propan-2-yl)-N-(pyrazin-2-yl)piperidine-1-carboxamide] | + (+ represents myosin activation value AC20 > 5 μM) |
| Cn1cc(S(=O)(=O)[C@@](C)(F)C2CCN(C(=O)Nc3ccc(C#N)nc3)CC2)c(C(F)F)n1 [Compound 299, (R)-N-(6-cyanopyridin-3-yl)-4-(1-((3-(difluoromethyl)-1-methyl-1H-pyrazol-4-yl)sulfonyl)-1-fluoroethyl)piperidine-1-carboxamide] | +++ (+++ represents myosin activation value AC20 < 2 μM) |
| Cc1ccc(NC(=O)N2CCC(C(C)(C)S(=O)(=O)c3cn(C)nc3C(F)F)CC2)cn1 [Compound 155, 4-(2-((3-(difluoromethyl)-1-methyl-1H-pyrazol-4-yl)sulfonyl)propan-2-yl)-N-(6-methylpyridin-3-yl)piperidine-1-carboxamide] | ++ (++ represents myosin activation value AC20 from 2 μM-5 μM) |
| Cc1ccccc1S(=O)(=O)CC1CCN(C(=O)Nc2ccncc2)CC1 [Compound 39, N-(pyridin-4-yl)-4-((o-tolylsulfonyl)methyl)piperidine-1-carboxamide] | + (+ represents myosin activation value AC20 > 5 μM) |
| O=C(Nc1ccnnc1)N1CCC(C(F)(F)S(=O)(=O)c2cccc(C(F)(F)F)c2)CC1 [Compound 49, 4-(difluoro((3-(trifluoromethyl)phenyl)sulfonyl)methyl)-N-(pyridazin-4-yl)piperidine-1-carboxamide] | ++ (++ represents myosin activation value AC20 from 2 μM-5 μM) |
| Cc1ccc(NC(=O)N2CCC([C@@](C)(F)S(=O)(=O)c3cn(C)nc3C(F)F)CC2)cn1 [Compound 258, (S)-4-(1-((3-(difluoromethyl)-1-methyl-1H-pyrazol-4-yl)sulfonyl)-1-fluoroethyl)-N-(6-methylpyridin-3-yl)piperidine-1-carboxamide] | + (+ represents myosin activation value AC20 > 5 μM) |
| Cn1nccc1S(=O)(=O)C(F)(F)C1CCN(C(=O)Nc2ccnnc2)CC1 [Compound 94, 4-(difluoro((1-methyl-1H-pyrazol-5-yl)sulfonyl)methyl)-N-(pyridazin-4-yl)piperidine-1-carboxamide] | + (+ represents myosin activation value AC20 > 5 μM) |
| Cn1cc(S(=O)(=O)[C@@](C)(F)C2CCN(C(=O)Nc3cc[nH]n3)CC2)c(C(F)F)n1 [Compound 290, (R)-4-(1-((3-(difluoromethyl)-1-methyl-1H-pyrazol-4-yl)sulfonyl)-1-fluoroethyl)-N-(1H-pyrazol-3-yl)piperidine-1-carboxamide] | ++ (++ represents myosin activation value AC20 from 2 μM-5 μM) |
| Cn1cc(S(=O)(=O)[C@@](C)(F)C2CCN(C(=O)Nc3cocn3)CC2)c(C(F)F)n1 [Compound 248, (R)-4-(1-((3-(difluoromethyl)-1-methyl-1H-pyrazol-4-yl)sulfonyl)-1-fluoroethyl)-N-(oxazol-4-yl)piperidine-1-carboxamide] | + (+ represents myosin activation value AC20 > 5 μM) |
| C[C@@](F)(C1CCN(C(=O)Nc2ccnnc2)CC1)S(=O)(=O)c1cccc(F)c1 [Compound 279, (S)-4-(1-fluoro-1-((3-fluorophenyl)sulfonyl)ethyl)-N-(pyridazin-4-yl)piperidine-1-carboxamide] | + (+ represents myosin activation value AC20 > 5 μM) |
| Cn1nc(C(F)(F)F)cc1S(=O)(=O)[C@](C)(F)C1CCN(C(=O)Nc2ccnc(F)c2)CC1 [Compound 230, (S)-4-(1-fluoro-1-((1-methyl-3-(trifluoromethyl)-1H-pyrazol-5-yl)sulfonyl)ethyl)-N-(2-fluoropyridin-4-yl)piperidine-1-carboxamide] | + (+ represents myosin activation value AC20 > 5 μM) |
| Cn1cc(S(=O)(=O)C(F)(F)C2CCN(C(=O)Nc3ccc(C#N)nc3)CC2)c(C(F)F)n1 [Compound 78, N-(6-cyanopyridin-3-yl)-4-(((3-(difluoromethyl)-1-methyl-1H-pyrazol-4-yl)sulfonyl)difluoromethyl)piperidine-1-carboxamide] | + (+ represents myosin activation value AC20 > 5 μM) |
| Cn1nc(C(C)(C)C)cc1S(=O)(=O)C(F)(F)C1CCN(C(=O)Nc2ccnnc2)CC1 [Compound 89, 4-(((3-(tert-butyl)-1-methyl-1H-pyrazol-5-yl)sulfonyl)difluoromethyl)-N-(pyridazin-4-yl)piperidine-1-carboxamide] | + (+ represents myosin activation value AC20 > 5 μM) |
| CC(C)(C)OC(=O)n1cc(NC(=O)N2CCC(C(C)(F)S(=O)(=O)c3cccc(F)c3)CC2)cn1 (stereo not shown) [Compound 237, tert-butyl 4-(4-(1-fluoro-1-((3-fluorophenyl)sulfonyl)ethyl)piperidine-1-carboxamido)-1H-pyrazole-1-carboxylate] | + (+ represents myosin activation value AC20 > 5 μM) |
| CC(C)(C1CCN(C(=O)Nc2ccns2)CC1)S(=O)(=O)c1cc(F)cc(F)c1 [Compound 210, 4-(2-((3,5-difluorophenyl)sulfonyl)propan-2-yl)-N-(isothiazol-5-yl)piperidine-1-carboxamide] | +++ (+++ represents myosin activation value AC20 < 2 μM) |
| C[C@](F)(C1CCN(C(=O)Nc2ccon2)CC1)S(=O)(=O)c1ccc(OC(F)F)nc1 [Compound 312, (R)-4-(1-((6-(difluoromethoxy)pyridin-3-yl)sulfonyl)-1-fluoroethyl)-N-(isoxazol-3-yl)piperidine-1-carboxamide] | +++ (+++ represents myosin activation value AC20 < 2 μM) |
| Cc1ccc(NC(=O)N2CCC(C(C)(F)S(=O)(=O)c3ccnn3C)CC2)cn1 (stereo not shown) [Compound 225, 4-(1-fluoro-1-((1-methyl-1H-pyrazol-5-yl)sulfonyl)ethyl)-N-(6-methylpyridin-3-yl)piperidine-1-carboxamide] | ++ (++ represents myosin activation value AC20 from 2 μM-5 μM) |
| Cn1nccc1S(=O)(=O)C(C)(C)C1CCN(C(=O)Nc2ccc(F)nc2)CC1 [Compound 124, N-(6-fluoropyridin-3-yl)-4-(2-((1-methyl-1H-pyrazol-5-yl)sulfonyl)propan-2-yl)piperidine-1-carboxamide] | + (+ represents myosin activation value AC20 > 5 μM) |
| Cn1nc(C2CC2)cc1S(=O)(=O)C(F)(F)C1CCN(C(=O)Nc2ccnnc2)CC1 [Compound 24, 4-(((3-Cyclopropyl-1-methyl-1H-pyrazol-5-yl)sulfonyl)difluoromethyl)-N-(pyridazin-4-yl)piperidine-1-carboxamide] | ++ (++ represents myosin activation value AC20 from 2 μM-5 μM) |
| Cn1cc(S(=O)(=O)[C@](C)(F)C2CCN(C(=O)Nc3ccon3)CC2)c(C(F)F)n1 [Compound 21, (S)-4-(1-((3-(Difluoromethyl)-1-methyl-1H-pyrazol-4-yl)sulfonyl)-1-fluoroethyl)-N-(isoxazol-3-yl)piperidine-1-carboxamide] | + (+ represents myosin activation value AC20 > 5 μM) |
